From PMC6273432, “Novel Selective Butyrylcholinesterase Inhibitors Incorporating Antioxidant Functionalities as Potential Bimodal Therapeutics for Alzheimer’s Disease” (Molecules, 2016)
“And” between values parts separate entries of the source, which are not always exact repeats. Identical values can stand only once. Like-named read-outs stand apart in the source and are kept apart here.

What was measured:
BuChE = settings: cited from earlier work
[1] = biological target: T1, BuChE purified from human plasma (Homo sapiens, UniProt P06276); test: Ellman assay, BuChE inhibition; assay type: biochemical; settings: for Selectivity: IC50 AChE/IC50 BuChE, 100 µM used for AChE where % inhibition at 100 µM was <50%; for IC50: n = 3
T1 construct: BuChE purified from human plasma; from tissue; host or cells: human plasma
T1 sequence (P06276 29-602): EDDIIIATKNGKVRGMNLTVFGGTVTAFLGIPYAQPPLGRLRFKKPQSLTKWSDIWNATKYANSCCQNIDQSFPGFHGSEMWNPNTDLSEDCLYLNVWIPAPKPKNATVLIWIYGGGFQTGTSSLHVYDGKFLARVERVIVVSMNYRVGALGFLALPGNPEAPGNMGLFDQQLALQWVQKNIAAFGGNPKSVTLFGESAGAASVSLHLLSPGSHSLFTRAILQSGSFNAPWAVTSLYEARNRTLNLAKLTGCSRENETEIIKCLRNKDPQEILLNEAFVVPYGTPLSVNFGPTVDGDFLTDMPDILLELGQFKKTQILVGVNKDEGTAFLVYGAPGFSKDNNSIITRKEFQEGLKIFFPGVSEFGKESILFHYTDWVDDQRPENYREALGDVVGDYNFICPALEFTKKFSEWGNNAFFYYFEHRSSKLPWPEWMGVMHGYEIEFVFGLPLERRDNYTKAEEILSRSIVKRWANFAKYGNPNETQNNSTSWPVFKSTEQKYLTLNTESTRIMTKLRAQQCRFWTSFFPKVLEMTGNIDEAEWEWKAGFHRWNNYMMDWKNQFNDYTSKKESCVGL
Procedure: (§1) Inhibitory activities of the isosorbide-2-carbamates bearing a lipoate ester (7a–d), a ferulate ester (8a–d) ester or 5-unsubstituted compounds (6a–d) was measured using the standard Ellman spectrophotometric method using AChE from electric eel or BuChE purified from human plasma with acetylthiocholine or butyrylthiocholine as appropriate (Table 1). […] These values are in the potency range of clinically used cholinesterase inhibitors. […] In most cases, it was not possible to achieve a maximal inhibition of AChE because the solubility threshold was lower than the concentration required for maximal inhibition. In previous studies, we noticed that phenyl carbamates of isosorbide are relatively weak inhibitors of BuChE compared with the benzyl and alkyl carbamates, but that AChE is relatively tolerant of isosorbide phenyl carbamates. We published a paper showing that isosorbide-2,5-diaryl esters are moderately potent substrate-inhibitors of AChE [25]. […] The effect of (appropriate) 5-ester substitution in the series of isosorbide compounds already published is to increase potency by promoting affinity in the pre-carbamylation state, reducing the pseudo Michaelis constant for the carbamate substrate (referred to as Kc in carbamylation literature). When the intrinsic affinity of the substrate carbamate is higher, there is a relatively greater proportion of the unimolecular E. carbamate complex. In the present case, the anti-oxidant ester functionality directly contributes to potency by increasing substrate affinity. […] Indeed, ester hydrolysis at the isosorbide C-5, which is slow, would produce the ferulic acid or lipoic acid byproduct.
(§2) Cholinesterase activity was measured using the Ellman spectrophotometric method. HuBuChE activity was measured in replicate samples using a 96-well plate reader. The total volume of test solution in each well was 250 μL. This consisted of 25 μL of plasma solution, 150 μL of phosphate buffer pH 8.0, 25 μL of DTNB solution (0.5 mM), and 25 μL of acetonitrile:distilled water (1:1). The 96-well plate was incubated for 30 min before 25 μL of butyrylthiocholine iodide (BTCI) solution (0.5 mM) was added, and the reaction was measured at 405 nm over 5 min using an Anthos bt2 plate reader. For the determination of AChE activity, 25 μL of electric eel AChE solution and 25 μL of acetylthiocholine iodide (ATCI) solution were used instead of the plasma solution and BTCI solution. For determination of enzyme inhibition, 25 μL of an inhibitor solution was added to the test solution instead of the acetonitrile:water (1:1) solution. Inhibitors were added 30 min before determination of remaining enzyme activity. IC50 values were calculated using GraphPad Prism 4.02 software (GraphPad Software Inc., La Jolla, CA, USA).

AChE from electric eel = biological target: T2, AChE from electric eel (Electrophorus electricus, UniProt O42275); test: Ellman assay, AChE inhibition; assay type: biochemical; settings: for IC50: inhibitor added 30 min before; for inhibition at 100 µM: read-out: AChE %I at 100 μM
T2 construct: AChE from electric eel; from tissue
T2 sequence (O42275 24-633): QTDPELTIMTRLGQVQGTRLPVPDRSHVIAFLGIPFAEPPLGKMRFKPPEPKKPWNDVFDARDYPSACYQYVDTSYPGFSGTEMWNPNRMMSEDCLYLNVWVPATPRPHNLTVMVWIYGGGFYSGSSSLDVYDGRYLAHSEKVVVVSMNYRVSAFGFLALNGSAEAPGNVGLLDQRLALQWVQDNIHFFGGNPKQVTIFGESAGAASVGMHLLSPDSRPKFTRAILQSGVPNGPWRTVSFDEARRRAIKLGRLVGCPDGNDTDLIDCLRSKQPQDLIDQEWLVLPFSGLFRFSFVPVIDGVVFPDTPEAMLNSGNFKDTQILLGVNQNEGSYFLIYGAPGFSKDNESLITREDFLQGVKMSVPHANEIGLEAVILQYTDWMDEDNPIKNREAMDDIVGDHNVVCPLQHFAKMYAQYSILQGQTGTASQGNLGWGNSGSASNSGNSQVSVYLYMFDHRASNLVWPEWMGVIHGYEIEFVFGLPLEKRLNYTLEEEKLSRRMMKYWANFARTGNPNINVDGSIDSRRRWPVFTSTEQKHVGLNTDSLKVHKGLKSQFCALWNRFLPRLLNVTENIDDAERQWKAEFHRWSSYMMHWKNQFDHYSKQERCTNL
Procedure: as §1, §2

[2] = tested on: HT-22 murine hippocampal cell line; test: cells; assay type: cell-based; settings: glutamate 5 mM
Procedure: (§3) The neuroprotective properties of the compounds were assessed using the HT-22 murine hippocampal cell line. This is an immortalized cell line which has become widely used in recent years to study oxidative stress induced neuronal cell death. The cell line lacks ionotropic glutamate receptors but is sensitive to glutamate cytotoxicity via non-receptor mediated pathway(s) that are to a significant extent propagated by reactive oxygen species. The cell line appeared to be a good cellular model for measuring an anti-oxidant mediated neuroprotective in vitro effect of the compounds [26, 27, 28].
(§4) Test compounds in DMSO solution (0.1%) were added to HT-22 cell culture for (24 h), using four repeats in three independent experiments. […] Lipoic acid and ferulic acid were also non-toxic in the same concentration range. Next, the neuronal cell culture was treated with glutamate (5 mM) which caused about 90% cell death as reflected in the MTT assay. Quercetin served as positive control and caused rescue of cell death to around 80% cell viability at 25 µM. Cells were co-treated with test compounds 7a–d and 8a–d at 1, 5, 10 and 25 µM in four repeats and three independent experiments. Lipoic and ferulic acid were tested in parallel experiments in the same concentration range. Lipoic acid was active in the range 10–25 µM but ferulic acid was not active (data not shown). […] The reasons for this unexpected variation in efficacy is not clear but may be due to (intra)cellular access.
This test was performed as reported before. Briefly, HT-22 cells were seeded in 96-well plates at a density of 5 × 10^3 per well and cultured for 24 h. Subsequently, cells were incubated for another 24 h either with medium or test compounds with potential cytoprotective activity either in the absence (to test for toxic effects) or the presence (to test for the protective potential against glutamate induced oxidative stress) of 5 mM glutamate. MTT solution (4 mg/mL in PBS) was diluted 1:10 with medium and the mixture was added to the wells after removal of the previous medium. The plates were then incubated for another 3 h. Then, the supernatant was removed and 100 µL of lysis buffer (10% SDS, pH 4.1) were added to the wells. Absorbance at 560 nm was determined on the next day using a multiwell plate photometer (Spectra Fluor Plus, Tecan, Crailsheim, Germany). The results of these cell viability assays were expressed as percentages relative to untreated control cells. All compounds were dissolved in DMSO and diluted with fresh medium, with the DMSO concentration always below 0.1% (v/v).
Data of all MTT tests were expressed as means ± SD of at least three independent experiments (in quadruplicates). Data were subjected to one-way ANOVA followed by Dunnett’s multiple comparison post-test using GraphPad Prism 5 Software. (Levels of significance ** p < 0.01; *** p < 0.001).

human BuChE = human BuChE (Homo sapiens, UniProt P06276); test: Inhibitor kinetics, time dependence of BuChE carbamylation; assay type: biochemical; settings: r^2 > 0.99
Sequence of human BuChE (P06276 29-602): as the sequence (P06276 29-602) above
Procedure: Solutions of human BuChE were treated with 7a in the range of 1–50 µM. At successive time intervals, aliquots were removed and the carbamylation reaction stopped by dilution. Residual enzyme activity at each time point and each inhibitor concentration level was estimated by adding the sample to a solution containing butyrylthiocholine substrate.
In order to monitor enzyme carbamylation over time, a 96-well plate was used, with all assay mixtures being made up to a final concentration of 250 μL for monitoring of absorbance at 412 nm. At time 0, 150 μL of inhibitor, at various concentrations, was added to an equal volume of enzyme. Thereafter, at successive time points, 50 μL aliquots were removed from these wells and added to wells containing 200 μL DTNB and BTCI in phosphate buffer pH 8.0. Hydrolysis of substrate was monitored by examining the changes in absorbance in each well at 412 nm over the following 30 s. Negative controls were run alongside the test solutions to take account of non-enzymatic hydrolysis, while positive controls gauged the rate of the uninhibited reaction. At least two replicate wells were run for each concentration of inhibitor. Plots of percentage inhibition over time were prepared using GraphPad Prism 4.03. A first order inhibition constant, kobs was obtained for each concentration of inhibitor by non-linear regression using an exponential decay function.

[3] = Oxygen radical absorbance capacity (ORAC) assay; assay type: physicochemical; settings: for ORAC antioxidant capacity: TE = 1 equals trolox
Procedure: The antioxidant capacity of 7d and 8a was assessed directly using the oxygen radical absorbance capacity (ORAC) assay, in which the physicochemical ability of the test compounds to scavenge radicals and quench fluorescein […] is quantified and related to so-called trolox equivalents (TE = 1 represents the antioxidant equivalence to trolox, a water-soluble Vitamin E derivative). Compound 7d was 0.163 ± 0.146, 8a, 0.635 ± 0.020, thus showing a very weak ORAC for the lipoate and a weak, but significant, effect for the ferulic acid derivative. The lack of activity of the lipoate in the non-cellular ORAC assay is not surprising as its anti-oxidant effects are mainly related to cellular or mitochondria related processes.
Compounds were assessed for antioxidant capacity using the standard ORAC assay performed as described previously.

[4] = tested on: HT-22 murine hippocampal cell line; assay type: cell-based; settings: 24 h, no glutamate; for toxicity / reduction in cell viability, compound alone: 1–25 µM
Procedure: as §3, §4
This test was performed as reported before. Briefly, HT-22 cells were seeded in 96-well plates at a density of 5 × 10^3 per well and cultured for 24 h. […] Absorbance at 560 nm was determined on the next day using a multiwell plate photometer (Spectra Fluor Plus, Tecan, Crailsheim, Germany). The results of these cell viability assays were expressed as percentages relative to untreated control cells. […]

[5] = inhibitor added 30 min before, read-out: BChE IC50
[6] = read-out: BChE pIC50 ± SEM (converted)

O=C(NCc1ccccc1)O[C@H]1CO[C@H]2[C@@H]1OC[C@H]2OC(=O)c1ccccc1 [Compound 1]
IC50 (BuChE; read-out: IC50 BuChE): 0.0043 µM

O=C(NCc1ccccc1)O[C@H]1CO[C@H]2[C@@H]1OC[C@H]2O [Compound 6a, Isosorbide-2-benzylcarbamate]
Selectivity [1]: 1.45 | IC50 [1, 5]: 25.8 µM | IC50 (AChE from electric eel; n = 3): 37.5 ± 7.4 µM

O=C(Nc1ccccc1)O[C@H]1CO[C@H]2[C@@H]1OC[C@H]2O [Compound 6b, Isosorbide-2-phenylcarbamate]
IC50 [1, 5]: > 100 µM | inhibition at 100 µM (AChE from electric eel; 100 μM, n = 3): 25.3%

CCCCNC(=O)O[C@H]1CO[C@H]2[C@@H]1OC[C@H]2O [Compound 6c, Isosorbide-2-butylcarbamate]
IC50 [1, 5]: 28 µM | IC50 [1, 6]: 28.2 µM | inhibition at 100 µM (AChE from electric eel): 30%

CCNC(=O)O[C@H]1CO[C@H]2[C@@H]1OC[C@H]2O [Compound 6d, Isosorbide-2-ethylcarbamate]
IC50 [1, 5]: 46.9 µM | IC50 [1, 6]: 46.8 µM | inhibition at 100 µM (AChE from electric eel; 100 μM, n = 3): 22%

O=C(CCCCC1CCSS1)O[C@@H]1CO[C@H]2[C@@H]1OC[C@@H]2OC(=O)NCc1ccccc1 (some centres unmarked) [Compound 7a, Isosorbide-2-benzylcarbamate-5-lipoic acid ester]
concentration range with neuroprotective effect ([2]; tested at 1, 5, 10 and 25 µM): 5 to 25 µM and > 5 µM | Selectivity [1]: >667 | IC50 [1, 5]: 0.15 µM | pseudo first order rate constant of BuChE inhibition (human BuChE; inhibitor 10 µM): 0.068 min⁻¹ | pseudo first order rate constant of BuChE inhibition (human BuChE; inhibitor 50 µM): 0.198 min⁻¹ | inhibition at 100 µM (AChE from electric eel; 100 μM, n = 3): 30.8%

O=C(CCCCC1CCSS1)O[C@@H]1CO[C@H]2[C@@H]1OC[C@@H]2OC(=O)Nc1ccccc1 (some centres unmarked) [Compound 7b, Isosorbide-2-phenylcarbamate-5-lipoic acid ester]
neuroprotective effect ([2]; 1–25 µM): neuroprotective effect could not be observed | Selectivity [1]: >7.5 | IC50 [1, 5]: 13.3 µM | IC50 [1, 6]: 13.2 µM | inhibition at 100 µM (AChE from electric eel; 100 μM, n = 3): 18.8%

CCCCNC(=O)O[C@H]1CO[C@H]2[C@@H]1OC[C@H]2OC(=O)CCCCC1CCSS1 (some centres unmarked) [Compound 7c, Isosorbide-2-butylcarbamate-5-lipoic acid ester]
neuroprotective effect ([2]; 1–25 µM): showed some effects | IC50 [1, 5]: 0.17 µM | IC50 [1, 6]: 0.209 µM | inhibition at 100 µM (AChE from electric eel; 100 μM, n = 3): 68.7%

CCNC(=O)O[C@H]1CO[C@H]2[C@@H]1OC[C@H]2OC(=O)CCCCC1CCSS1 (some centres unmarked) [Compound 7d, Isosorbide-2-ethylcarbamate-5-lipoic acid ester]
neuroprotective effect ([2]; 1–25 µM): showed some effects | ORAC antioxidant effect [3]: not active | ORAC antioxidant capacity [3]: 0.163 ± 0.146 Trolox Equivalent | IC50 [1, 5]: 5.71 µM | IC50 [1, 6]: 5.75 µM | inhibition at 100 µM (AChE from electric eel; 100 μM, n = 3): 84.1%

COc1cc(/C=C/C(=O)O[C@@H]2CO[C@H]3[C@@H]2OC[C@@H]3OC(=O)NCc2ccccc2)ccc1O [Compound 8a, Isosorbide-2-benzylcarbanate-5-ferulate]
ORAC antioxidant capacity [3]: 0.635 ± 0.020 Trolox Equivalent | Selectivity [1]: >55 | IC50 [1, 5]: 1.82 µM | IC50 [1, 6]: 1.62 µM | inhibition at 100 µM (AChE from electric eel; 100 μM, n = 3): 25.2%

COc1cc(/C=C/C(=O)O[C@@H]2CO[C@H]3[C@@H]2OC[C@@H]3OC(=O)Nc2ccccc2)ccc1O [Compound 8b, Isosorbide-2-phenylcarbanate-5-ferulate]
Selectivity [1]: 0.92 | IC50 [1, 5]: 29.2 µM | IC50 [1, 6]: 26.3 µM | IC50 (AChE from electric eel; n = 3): 27.1 ± 11.3 µM

CCCCNC(=O)O[C@H]1CO[C@H]2[C@@H]1OC[C@H]2OC(=O)/C=C/c1ccc(O)c(OC)c1 [Compound 8c, Isosorbide-2-butylcarbanate-5-ferulate]
IC50 [1, 5]: 0.43 µM | IC50 [1, 6]: 0.389 µM

CCNC(=O)O[C@H]1CO[C@H]2[C@@H]1OC[C@H]2OC(=O)/C=C/c1ccc(O)c(OC)c1 [Compound 8d, Isosorbide-2-ethylcarbanate-5-ferulate]
IC50 [1, 5]: 95 µM | IC50 [1, 6]: 95.5 µM | reduction in cell viability, compound alone ([4]; 25 µM): significant

COc1cc(/C=C/C(=O)O)ccc1O [Ferulic acid, ferulic acid, reference compound]
neuroprotective effect ([2]; 1–25 µM): not active | toxicity / reduction in cell viability, compound alone [4]: non-toxic

O=C(NCc1ccccc1)OC1COC2C(OC(=O)c3ccccc3O)COC12 (centres unmarked) [Isosorbide-2-benzyl carbamate-5-salicylate]
IC50 (BuChE; read-out: IC50 for BuChE): < 0.00015 µM

O=C(O)CCCCC1CCSS1 (centres unmarked) [Lipoic acid, lipoic acid, reference compound]
neuroprotective effect ([2]; compound 5 µM): not effective | toxicity / reduction in cell viability, compound alone [4]: non-toxic

O=c1c(O)c(-c2ccc(O)c(O)c2)oc2cc(O)cc(O)c12 [Quercetin, quercetin, reference compound]
viability at 25 µM ([2]; Mus musculus, HT-22, compound 25 µM, read-out: cell viability after rescue from glutamate): ~80%
